Oligonucleotides are written 5' to 3', each unit as a sugar letter and its base; * is a phosphorothioate linkage, no mark a phosphodiester; rarer units and linkages stand in square brackets, end groups in braces. Plain capitals give the bases only. d = 2'-deoxy (DNA)

Data set [1] has as its system acpP mRNA. Briefly: RNA-seq, target mRNA depletion. It is filed as cell-based, Salmonella enterica serovar Typhimurium strain SL1344. Details: key to acpP depletion (RNA-seq): -: Effect strength is represented by additional (+) signs.; Effect strength is represented by additional (+) signs.; ++: Effect strength is represented by additional (+) signs.; +++: Effect strength is represented by additional (+) signs. To be noted: for acpP depletion (RNA-seq): summary grade, ASO conjugated to the carrier peptide; for acpP mRNA depletion (in words): 5 µM KFF-ASO conjugate, 15 min, ~10^6 cfu/ml. The method, then:
(§1) RNA isolation was performed using previously published protocols ([30],[31]). Bacterial overnight cultures were diluted 1:100 in fresh MHB and grown to OD600 0.5. The cultures were diluted to approximately 10^6 cfu/ml in non-cation-adjusted MHB. Afterwards, an aliquot of the bacterial solution was transferred into 5 ml low-binding tubes (LABsolute) containing the ASOs solution (adjusted such that the final concentration was 5 μM for all tested compounds). As a negative control, cells were treated with the respective volume of sterile nuclease-free water, which was used as solvent for the ASOs. After incubating the samples for 15 min at 37 °C, RNAprotect Bacteria (Qiagen) was added according to the manufacturer’s instructions. Following a 10-min incubation, cells were pelleted at 4 °C and 21,100 × g for 20 min. The supernatant was discarded and pellets were either directly used or stored at –20°C (<1 day) for subsequent bacterial RNA isolation.
(§2) Total RNA was purified from bacterial pellets using the miRNeasy Mini kit (Qiagen) according to protocol #3 described in ([30]). Briefly, cells were resuspended in 0.5 mg/ml lysozyme (Roth) in TE buffer (pH 8.0) and incubated for 5 min. Afterwards, RLT buffer supplemented with β-mercaptoethanol, and ethanol were added according to the manufacturer’s instructions. After sample loading, column wash-steps were performed according to the manual. RNA concentration was measured with a NanoDrop spectrophotometer.
For transcriptomic analyses, RNA samples were processed and subjected to RNA-seq at Core Unit SysMed (University of Würzburg, Germany). Sequencing was run using a previously published protocol ([31]). Briefly, RNA quality was checked using a 2100 Bioanalyzer with the RNA 6000 Pico/ Nano kit (Agilent Technologies). RNA samples were DNase-treated using DNAse I kit (Thermo Fisher), followed by ribosomal RNA depletion using Lexogen’s RiboCop META rRNA Depletion Kit protocol according to manufacturer’s recommendation. Subsequently, cDNA libraries suitable for sequencing were prepared using CORALL Total RNA-Seq Library Prep protocol (Lexogen) according to manufacturer’s recommendation with 14–25 PCR cycles. Library quality was checked using a 2100 Bioanalyzer with the DNA High Sensitivity kit (Agilent Technologies). Sequencing of pooled libraries, spiked with 5% PhiX control library, was performed at 10 million reads/sample in single-end mode with 75 nt read length on the NextSeq 500 platform (Illumina) using High output sequencing kits. Demultiplexed FASTQ files were generated with bcl2fastq2 v2.20.0.422 (Illumina).
RNA-seq data analysis was performed similarly to our previous analysis of PNA activity in S. enterica ([30]). Briefly, adapters and low-quality bases (Phred quality score <10) of raw reads were trimmed using BBduk. Then the RNA-seq reads were mapped to the S. enterica serovar Typhimurium reference genome and the three plasmids pSLT SL1344, pCol1B9 SL1344, and pRSF1010 SL1344 ([37]) using BBMap (v38.18) and genomic features were assigned using the featureCounts command of the Subread (2.0.1) package ([38]). For the coverage plots in Figure 8, the bamCoverage (v3.3.2) method of the deepTools platform was applied ([39]).
Downstream RNA-seq analysis was performed using packages from the R/Bioconductor project. Raw read counts of all conditions were imported into edgeR (v3.34.1) ([40]) and analysed for differential expression. To filter low-count reads, features with less than 1.38 counts per million (CPM) in at least 5 libraries were ignored for further analysis. The cutoff of 1.38 CPM was set to 10/L, with L being the minimum library size across all samples in millions, as described in ([41]). Libraries were normalized using edgeR’s trimmed mean of M values (TMM) normalization ([40]). The glmFit function was applied to estimate quasi-likelihood dispersions and contrasts for differential expression analysis were tested using the glmQLTest function. […]

Data set [2] deals with Salmonella periplasm. Briefly: MALDI-TOF analysis of ASO-peptide conjugate uptake. Details: key: -: Effect strength is represented by additional (+) signs.; Effect strength is represented by additional (+) signs.; ++: Effect strength is represented by additional (+) signs.; +++: Effect strength is represented by additional (+) signs. It is filed as cell-based. Conditions: summary grade; ASO conjugated to the carrier peptide. How it is done: The experiments were performed by modifying previously published protocols ([29]). From an overnight culture of Salmonella, a second culture was inoculated (1:100) and grown to OD600 of 0.5 (corresponding to ∼2×10^8 cfu/mL). These bacterial cells was washed twice in MHB and resuspended in 95 µl of MHB with an additional incubation at 37°C for 5-10 min. Sterile ASO-peptide conjugates were prepared at concentrations of 200 µM. 5 µl of the 200 µM working solutions were added to 95 µl of bacteria in culture media, leading to a final concentration of the compounds of 10 µM. 5 µl of H2O was added as a negative control. The tubes were incubated at 37°C for 15 min with shaking at 300 rpm. Subsequently, they were centrifuged at 8,000 x g for 5 min at 4 °C. The supernatant was aspirated and the pellet was washed with 0.01 M Tris-HCl before being resuspended in 200 µl of 0.01M Tris-HCl containing 0.5 M Sucrose, 150 µg/ml lysozyme, 10 mM EDTA and incubated at 37 °C overnight. These tubes were then centrifuged at 2,000 x g at 4°C for 10 min. The supernatant obtained represents the periplasm. The pellet containing spheroplasts was gently washed with 0.01 M Tris-HCl containing 0.5 M Sucrose and resuspended in 20 ml of B-PER™ Bacterial Protein Extraction Reagent (Thermo Fischer Scientific) for 1 h. After this, the spheroplasts were subjected to sonication (20kHz for 2×10 s), incubated on ice for 5 min and centrifuged at 20,000 x g for 30 min at 4 °C. The supernatant represents the cytoplasm. Both the periplasm and cytoplasm fragments were then mixed with 2, 6-Dihydroxyacetophenone (DHAP) in ACN 1:1, spotted on a MALDI plate and analyzed for MALDI-TOF-MS in a Bruker DaltonicsUltrafleXtreme Instrument. The experiment was performed two times and data of one representative experiment are shown.

Data set [3] has as its system fabF (3-oxoacyl-[acyl carrier protein] synthase 2) transcript. Briefly: RNA-seq, fabF transcript. Format: cell-based, Salmonella enterica serovar Typhimurium strain SL1344. Conditions: 5 µM KFF-ASO conjugate, 15 min. The method, then:
RNA isolation was performed using previously published protocols ([30],[31]). Bacterial overnight cultures were diluted 1:100 in fresh MHB and grown to OD600 0.5. The cultures were diluted to approximately 10^6 cfu/ml in non-cation-adjusted MHB. Afterwards, an aliquot of the bacterial solution was transferred into 5 ml low-binding tubes (LABsolute) containing the ASOs solution (adjusted such that the final concentration was 5 μM for all tested compounds). As a negative control, cells were treated with the respective volume of sterile nuclease-free water, which was used as solvent for the ASOs. […]
Total RNA was purified from bacterial pellets using the miRNeasy Mini kit (Qiagen) according to protocol #3 described in ([30]). […] RNA concentration was measured with a NanoDrop spectrophotometer.
For transcriptomic analyses, RNA samples were processed and subjected to RNA-seq at Core Unit SysMed (University of Würzburg, Germany). […] Sequencing of pooled libraries, spiked with 5% PhiX control library, was performed at 10 million reads/sample in single-end mode with 75 nt read length on the NextSeq 500 platform (Illumina) using High output sequencing kits. […]
RNA-seq data analysis was performed similarly to our previous analysis of PNA activity in S. enterica ([30]). Briefly, adapters and low-quality bases (Phred quality score <10) of raw reads were trimmed using BBduk. […]

In data set [4] the test system is Salmonella. Briefly: RNA-seq, global transcriptome (PCA). It is filed as cell-based, Salmonella enterica serovar Typhimurium strain SL1344. To be noted: 5 µM KFF-ASO conjugate or peptide, 15 min; two independent RNA-seq experiments. The method, then: as §1, §2
For transcriptomic analyses, RNA samples were processed and subjected to RNA-seq at Core Unit SysMed (University of Würzburg, Germany). Sequencing was run using a previously published protocol ([31]). […] Sequencing of pooled libraries, spiked with 5% PhiX control library, was performed at 10 million reads/sample in single-end mode with 75 nt read length on the NextSeq 500 platform (Illumina) using High output sequencing kits. […]
RNA-seq data analysis was performed similarly to our previous analysis of PNA activity in S. enterica ([30]). Briefly, adapters and low-quality bases (Phred quality score <10) of raw reads were trimmed using BBduk. Then the RNA-seq reads were mapped to the S. enterica serovar Typhimurium reference genome and the three plasmids pSLT SL1344, pCol1B9 SL1344, and pRSF1010 SL1344 ([37]) using BBMap (v38.18) and genomic features were assigned using the featureCounts command of the Subread (2.0.1) package ([38]). […]
Downstream RNA-seq analysis was performed using packages from the R/Bioconductor project. Raw read counts of all conditions were imported into edgeR (v3.34.1) ([40]) and analysed for differential expression. To filter low-count reads, features with less than 1.38 counts per million (CPM) in at least 5 libraries were ignored for further analysis. […]

As to “DNA-PTO: 10mer phosphorothioate-modified DNA antisense oligomer, sequence CTCATACTCT, targeting acpP (antisense dC*dT*dC*dA*dT*dA*dC*dT*dC*dT)”, the “acpP depletion (RNA-seq)” value in data set [1] is “-”. The “Uptake inside bacteria (MS)” value in data set [2] is recorded as “-”.
“LNA: 10mer 2'-4'-locked RNA antisense oligomer, sequence CTCATACTCT, targeting acpP (all LNA, backbone and methylation of C not given here)”: in data set [1], the “acpP mRNA depletion (in words)” value was “slight effect” and the “acpP depletion (RNA-seq)” value is listed as “-”. Moreover, the “Uptake inside bacteria (MS)” value in data set [2] is reported as “-”.
Take “PMO: 10mer phosphorodiamidate morpholino antisense oligomer, sequence CTCATACTCT, targeting acpP (all phosphorodiamidate morpholino (PMO))”: the fabF transcript level entry in data set [3] is listed as “Reduction”. The “PCA cluster of the transcriptomic response” value (“PCA cluster” for short) in data set [4] was “cluster 3”.
In the case of “PNA: 10mer peptide nucleic acid antisense oligomer, sequence CTCATACTCT, targeting acpP (all peptide nucleic acid (PNA))”, the “acpP mRNA depletion (in words)” value in data set [1] is “reduced the levels of acpP mRNA”. For the same substance, in data set [3], the fabF transcript level entry was “Reduction”. For the same substance, the “PCA cluster” value in data set [4] was “cluster 1”.
Regarding “RNA-F: 10mer 2'-fluorinated RNA antisense oligomer, sequence CTCATACTCT, targeting acpP (all 2'-fluoro, backbone and T or U not given here)”, in data set [1], the “acpP depletion (RNA-seq)” value was “-”. The “Uptake inside bacteria (MS)” value in data set [2] is “-”.
For the substance “RNA-MOE: 10mer 2'-methoxyethylated RNA antisense oligomer, sequence CTCATACTCT, targeting acpP (all 2'-MOE, backbone and methylation of C not given here)”, in data set [1], the “acpP depletion (RNA-seq)” value was “-”. In addition, in data set [2], the “Uptake inside bacteria (MS)” value is given as “-”. Further, the “PCA cluster” value in data set [4] was “cluster 1”.
“RNA-OMe: 10mer 2'-methylated RNA antisense oligomer, sequence CTCATACTCT, targeting acpP (all 2'-O-methyl, backbone and T or U not given here)”: the “acpP depletion (RNA-seq)” value in data set [1] was “-”. In addition, the “Uptake inside bacteria (MS)” value in data set [2] was “-”. In addition, the “PCA cluster” value in data set [4] is listed as “cluster 1”.

Source of the values: publication doi:10.1101/2023.07.11.548539v1, “A side-by-side comparison of peptide-delivered antisense antibiotics employing different nucleotide mimics” (bioRxiv, 2023).
